Measurements: PubChem BioAssay AID1963969 (Molecular Pharmacology Branch, DTP, NCI, 2024)

Tested on: 817829-284-R-J1-PDC multi-cell spheroid viability
Test: Anticancer human tumor 817829-284-R-J1-PDC patient-derived colon adenocarcinoma cell line growth inhibition [PI3K]
Conditions: for IC50: curve of first compound; for viability, T/C: stronger effect = lower value
How it was run: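 Combination activity was assessed by viability in multicellular tumor spheroids carrying HUVEC and MSC components. Agents were tested with PI3K inhibitors from a Cmax-based top dose (or 10 microM) downward in half-log increments.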

[1] = second compound 0.00316 µM, first compound 0.0316 µM
[2] = second compound 0.00316 µM, first compound 0.1 µM
[3] = second compound 0.00316 µM, first compound 0.316 µM
[4] = second compound 0.00316 µM, first compound 1 µM
[5] = second compound 0.00316 µM, first compound 3.16 µM
[6] = second compound 0.00316 µM, first compound 10 µM
[7] = second compound 0.01 µM, first compound 0.0316 µM
[8] = second compound 0.01 µM, first compound 0.1 µM
[9] = second compound 0.01 µM, first compound 0.316 µM
[10] = second compound 0.01 µM, first compound 1 µM
[11] = second compound 0.01 µM, first compound 3.16 µM
[12] = second compound 0.01 µM, first compound 10 µM
[13] = second compound 0.0316 µM, first compound 0.0316 µM
[14] = second compound 0.0316 µM, first compound 0.1 µM
[15] = second compound 0.0316 µM, first compound 0.316 µM
[16] = second compound 0.0316 µM, first compound 1 µM
[17] = second compound 0.0316 µM, first compound 3.16 µM
[18] = second compound 0.0316 µM, first compound 10 µM
[19] = second compound 0.1 µM, first compound 0.0316 µM
[20] = second compound 0.1 µM, first compound 0.1 µM
[21] = second compound 0.1 µM, first compound 0.316 µM
[22] = second compound 0.1 µM, first compound 1 µM
[23] = second compound 0.1 µM, first compound 3.16 µM
[24] = second compound 0.1 µM, first compound 10 µM
[25] = second compound 0.316 µM, first compound 0.0316 µM
[26] = second compound 0.316 µM, first compound 0.1 µM
[27] = second compound 0.316 µM, first compound 0.316 µM
[28] = second compound 0.316 µM, first compound 1 µM
[29] = second compound 0.316 µM, first compound 3.16 µM
[30] = second compound 0.316 µM, first compound 10 µM
[31] = second compound 1 µM, first compound 0.0316 µM
[32] = second compound 1 µM, first compound 0.1 µM
[33] = second compound 1 µM, first compound 0.316 µM
[34] = second compound 1 µM, first compound 1 µM
[35] = second compound 1 µM, first compound 3.16 µM
[36] = second compound 1 µM, first compound 10 µM
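Also: spheroids exposed to agents for seven days before readout.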
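For viability, T/C in this document: percent of vehicle DMSO control viability which is 100%.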

C#Cc1c(F)ccc2cc(O)cc(-c3ncc4c(N5CC6CCC(C5)N6)nc(OCC56CCCN5CC(F)C6)nc4c3F)c12 (stereo not drawn) + COc1c(OCCCN2CCOCC2)ccc2c3n(c(=NC(=O)c4cnc(N)nc4)nc12)CCN3
IC50 (second compound 0.00316 µM): > 10000 nM | IC50 (second compound 0.01 µM): > 10000 nM | IC50 (second compound 0.0316 µM): 7450 nM | IC50 (second compound 0.1 µM): < 31.6 nM | IC50 (second compound 0.316 µM): < 31.6 nM | IC50 (second compound 1 µM): < 31.6 nM | viability, T/C [1]: 64.9% | viability, T/C [2]: 82.5% | viability, T/C [3]: 83.7% | viability, T/C [4]: 71.8% | viability, T/C [5]: 77% | viability, T/C [6]: 70.2% | viability, T/C [7]: 86.2% | viability, T/C [8]: 84% | viability, T/C [9]: 62.9% | viability, T/C [10]: 61.8% | viability, T/C [11]: 69.6% | viability, T/C [12]: 51.1% | viability, T/C [13]: 73.8% | viability, T/C [14]: 41.5% | viability, T/C [15]: 53.7% | viability, T/C [16]: 50.4% | viability, T/C [17]: 74.8% | viability, T/C [18]: 37.2% | viability, T/C [19]: 28.6% | viability, T/C [20]: 40.5% | viability, T/C [21]: 37.6% | viability, T/C [22]: 21.4% | viability, T/C [23]: 37.8% | viability, T/C [24]: 30.8% | viability, T/C [25]: 17.4% | viability, T/C [26]: 26.3% | viability, T/C [27]: 22.2% | viability, T/C [28]: 14.9% | viability, T/C [29]: 18% | viability, T/C [30]: 12.4% | viability, T/C [31]: 8.66% | viability, T/C [32]: 9.22% | viability, T/C [33]: 8.61% | viability, T/C [34]: 8.24% | viability, T/C [35]: 5.56% | viability, T/C [36]: 6.03%

CC(Cn1ccc(-c2ccc(C#N)c(Cl)c2)n1)NC(=O)c1cc(C(C)O)[nH]n1 (stereo not drawn) + COc1c(OCCCN2CCOCC2)ccc2c3n(c(=NC(=O)c4cnc(N)nc4)nc12)CCN3
IC50 (second compound 0.00316 µM): > 10000 nM | IC50 (second compound 0.01 µM): 6450 nM | IC50 (second compound 0.0316 µM): 5820 nM | IC50 (second compound 0.1 µM): < 31.6 nM | IC50 (second compound 0.316 µM): < 31.6 nM | IC50 (second compound 1 µM): < 31.6 nM | viability, T/C [1]: 70.6% | viability, T/C [2]: 101% | viability, T/C [3]: 101% | viability, T/C [4]: 97.5% | viability, T/C [5]: 64.5% | viability, T/C [6]: 73.9% | viability, T/C [7]: 59.5% | viability, T/C [8]: 87.1% | viability, T/C [9]: 98.8% | viability, T/C [10]: 57.1% | viability, T/C [11]: 71.1% | viability, T/C [12]: 39.4% | viability, T/C [13]: 50.8% | viability, T/C [14]: 61.7% | viability, T/C [15]: 61.4% | viability, T/C [16]: 67.5% | viability, T/C [17]: 54.6% | viability, T/C [18]: 36.4% | viability, T/C [19]: 48.2% | viability, T/C [20]: 30.8% | viability, T/C [21]: 30.2% | viability, T/C [22]: 38.1% | viability, T/C [23]: 33.2% | viability, T/C [24]: 26.8% | viability, T/C [25]: 20.2% | viability, T/C [26]: 21.3% | viability, T/C [27]: 23.6% | viability, T/C [28]: 20.5% | viability, T/C [29]: 24.4% | viability, T/C [30]: 20.8% | viability, T/C [31]: 12.9% | viability, T/C [32]: 7.86% | viability, T/C [33]: 10.6% | viability, T/C [34]: 9.64% | viability, T/C [35]: 9.96% | viability, T/C [36]: 10.4%

CCN1CCN(Cc2ccc(Nc3ncc(F)c(-c4cc(F)c5nc(C)n(C(C)C)c5c4)n3)nc2)CC1 + COc1c(OCCCN2CCOCC2)ccc2c3n(c(=NC(=O)c4cnc(N)nc4)nc12)CCN3
IC50 (second compound 0.00316 µM): > 1000 nM | IC50 (second compound 0.01 µM): > 1000 nM | IC50 (second compound 0.0316 µM): 57.5 nM | IC50 (second compound 0.1 µM): < 3.16 nM | IC50 (second compound 0.316 µM): < 3.16 nM | IC50 (second compound 1 µM): < 3.16 nM | viability, T/C (second compound 0.00316 µM, first compound 0.00316 µM): 113% | viability, T/C (second compound 0.00316 µM, first compound 0.01 µM): 83.4% | viability, T/C [1]: 72.7% | viability, T/C [2]: 50.2% | viability, T/C [3]: 50.7% | viability, T/C [4]: 53.8% | viability, T/C (second compound 0.01 µM, first compound 0.00316 µM): 75.4% | viability, T/C (second compound 0.01 µM, first compound 0.01 µM): 60.3% | viability, T/C [7]: 58.7% | viability, T/C [8]: 58% | viability, T/C [9]: 47.8% | viability, T/C [10]: 50.4% | viability, T/C (second compound 0.0316 µM, first compound 0.00316 µM): 56% | viability, T/C (second compound 0.0316 µM, first compound 0.01 µM): 55.5% | viability, T/C [13]: 73.6% | viability, T/C [14]: 27.9% | viability, T/C [15]: 41.4% | viability, T/C [16]: 48.2% | viability, T/C (second compound 0.1 µM, first compound 0.00316 µM): 36.2% | viability, T/C (second compound 0.1 µM, first compound 0.01 µM): 32% | viability, T/C [19]: 27.9% | viability, T/C [20]: 21.1% | viability, T/C [21]: 31.3% | viability, T/C [22]: 38.5% | viability, T/C (second compound 0.316 µM, first compound 0.00316 µM): 22% | viability, T/C (second compound 0.316 µM, first compound 0.01 µM): 16% | viability, T/C [25]: 21.6% | viability, T/C [26]: 21.2% | viability, T/C [27]: 34.1% | viability, T/C [28]: 29.4% | viability, T/C (second compound 1 µM, first compound 0.00316 µM): 9.7% | viability, T/C (second compound 1 µM, first compound 0.01 µM): 9.65% | viability, T/C [31]: 9.55% | viability, T/C [32]: 12.1% | viability, T/C [33]: 16.5% | viability, T/C [34]: 21.9%

Cn1ncc(Cl)c1-c1cc(C(=O)NC(CN)Cc2cccc(F)c2)sc1Cl (stereo not drawn) + COc1c(OCCCN2CCOCC2)ccc2c3n(c(=NC(=O)c4cnc(N)nc4)nc12)CCN3
IC50 (second compound 0.00316 µM): 73 nM | IC50 (second compound 0.01 µM): 79.9 nM | IC50 (second compound 0.0316 µM): 45.2 nM | IC50 (second compound 0.1 µM): < 31.6 nM | IC50 (second compound 0.316 µM): < 31.6 nM | IC50 (second compound 1 µM): < 31.6 nM | viability, T/C [1]: 105% | viability, T/C [2]: 29.4% | viability, T/C [3]: 21.1% | viability, T/C [4]: 20.9% | viability, T/C [5]: 18.1% | viability, T/C [6]: 15.5% | viability, T/C [7]: 69.6% | viability, T/C [8]: 46.2% | viability, T/C [9]: 25.6% | viability, T/C [10]: 25.9% | viability, T/C [11]: 18.3% | viability, T/C [12]: 10.8% | viability, T/C [13]: 59% | viability, T/C [14]: 31.2% | viability, T/C [15]: 16.8% | viability, T/C [16]: 20.9% | viability, T/C [17]: 15.8% | viability, T/C [18]: 10.5% | viability, T/C [19]: 25.4% | viability, T/C [20]: 25.4% | viability, T/C [21]: 21.2% | viability, T/C [22]: 15.2% | viability, T/C [23]: 13.9% | viability, T/C [24]: 10.3% | viability, T/C [25]: 20.2% | viability, T/C [26]: 23.4% | viability, T/C [27]: 15.2% | viability, T/C [28]: 12.2% | viability, T/C [29]: 11.1% | viability, T/C [30]: 8.71% | viability, T/C [31]: 9.57% | viability, T/C [32]: 11.1% | viability, T/C [33]: 8.51% | viability, T/C [34]: 9.47% | viability, T/C [35]: 7.2% | viability, T/C [36]: 8.41%
